Measurements as given in patent US7625943B2, “5-alkyl-7-alkylcarbonate-isoflavone ester and related method” (priority 2004, dated 2009).

Key:
duration of action = type: in vivo; settings: estimated; ratio to 5-methyl-7-methoxy-isoflavone
Source text: One limitation of known prodrugs is that, once they are transformed into the parent drug, they are broken down in the body, and particularly in the liver. This breakdown reduces in vivo concentration and bioavailability of the drug. This breakdown effect has been observed with 5-methyl-7-methoxy-isoflavone. In the presently preferred embodiments of the invention, however, the compounds are less prone to such breakdown in the body relative to many known prodrug-type compounds. This in many instances is attributable to the alkylcarbonate ester promoiety, which makes the compound more resistant to hydrolysis and other reactions that inhibit or destroy them in the body. In vivo concentrations thus can be maintained more readily, and bioavailability of the parent isoflavone can be improved. It has been estimated that the duration of action for 5-methyl-7-ethylcarbonate-isoflavone may be twice that of 5-methyl-7-methoxy-isoflavone.

[1] = after transformation into the parent drug; cited from earlier work
[2] = administered to a human; estimated; cited from earlier work

Row | Compound | duration of action relative to 5-methyl-7-methoxy-isoflavone (duration of action) | breakdown effect in the body (liver) reducing in vivo concentration and bioavailability [1] | proportion of administered prodrug converted in vivo to 7-hydroxy-5-methyl-isoflavone [2]
1 | CCOC(=O)Oc1cc(C)c2c(=O)c(-c3ccccc3)coc2c1 [5-methyl-7-ethylcarbonate-isoflavone] | twice |  | 
2 | COc1cc(C)c2c(=O)c(-c3ccccc3)coc2c1 [5-methyl-7-methoxy-isoflavone] |  | observed | approximately 50%
